For data set [1], the system named is Leishmania. Also on record: method as in PMID 15793164. Conditions: oral administration in mice for 30 days; cited from earlier work.
The test system of data set [2] is Trypanosoma brucei rhodesiense STIB 900. As to the kind of experiment: In vitro assay for Trypanosoma brucei rhodesiense (resazurin). It counts as cell-based. Here is the method: Trypanosoma brucei rhodesiense STIB 900 strain, isolated in 1982 from a human patient in Tanzania and, after several mouse passages, cloned and adapted to axenic culture conditions, was used in this assay. Minimum essential medium (50 μL) supplemented with 25 mM HEPES, 1 g/L additional glucose, 1% MEM non-essential amino acids (100×), 0.2 mM 2-mercaptoethanol, 1 mM Na-pyruvate, and 15% heat inactivated horse serum was added to each well of a 96 well microtiter plate. Serial drug dilutions of seven 3-fold dilution steps covering a range from 90 to 0.123 μg/mL were prepared, and then 4 × 10^4 blood stream forms of T. b. rhodesiense STIB 900 in 50 μL were added to each well and the plate was incubated at 37 °C under a 5% CO2 atmosphere for 72 h. Resazurin solution (resazurin, 12.5 mg in 100 mL double-distilled water) (10 μL) was then added to each well and incubated for a further 2–4 h. At the end of the assay, the plates were read with a Spectramax Gemini XS microplate fluorometer (Molecular Devices Cooperation, Sunnyvale, CA, USA) using an excitation wavelength of 536 nm and an emission wavelength of 588 nm. Data were analyzed using the microplate reader software Softmax Pro (Molecular Devices Cooperation, Sunnyvale, CA, USA). Melarsoprol was used as standard drug.
A general note: Resazurin is reduced to fluorescent resorufin, in cell work by metabolically active cells.

The subject of data set [3] is T. cruzi Tulahuen strain C2C4. As to the kind of experiment: In vitro assay for Trypanosoma cruzi in L-6 cells (β-galactosidase/CPRG). The class given is cell-based. Conditions: Trypanosoma cruzi, L6; Tulahuen C2C4 in L-6 cells, 96 h; highest concentration tested 90 μg/mL; means of two determinations ± deviation. Here is the method:
Rat skeletal myoblasts (L-6 cells) were seeded in 96 well microtiter plates (2000 cells/well) in 100 μL RPMI 1640 medium with 10% FBS and 2 mM L-glutamine for 24 h. After that, the medium was removed and replaced by 100 μL per well containing 5000 trypomastigote forms of T. cruzi Tulahuen strain C2C4, containing the β-galactosidase (Lac Z) gene. The medium was removed from the wells after 48 h, and replaced with 100 μL fresh medium with or without a serial drug dilution of seven 3-fold dilution steps covering a range from 90 to 0.123 μg/mL. After 96 h of incubation, the plates were inspected under an inverted microscope to assure growth of the controls and sterility, after which the substrate CPRG/Nonidet ([…]) was added to all wells. A color reaction developed within 2–6 h and could be read photometrically at 540 nm. Data were transferred into the graphic program Softmax Pro (Molecular Devices Cooperation, Sunnyvale, CA, USA) and the IC50 values were calculated from the sigmoidal dose response curves. Benznidazole was the reference drug.

Data set [4] relates to L. donovani (strain MHOM/ET/67/L82) amastigotes. Description: In vitro assay for Leishmania donovani axenic amastigotes (resazurin). The settings on record: axenic amastigotes, 72 h, means of two determinations ± deviation, read-out: IC50 Leishmania donovani. The class given is cell-based. Here is the method: Amastigotes of L. donovani (strain MHOM/ET/67/L82) were grown in axenic culture at 37 °C in SM medium at pH 5.4 supplemented with 10% heat-inactivated FBS under an atmosphere of 5% CO2. Culture medium (100 μL) with 10^5 amastigotes from axenic culture with or without a serial drug dilution was seeded in 96 well microtiter plates. Serial drug was prepared covering a range of dilutions from 90 to 0.123 μg/mL. After 72 h of incubation, the plates were inspected under an inverted microscope to assure growth of the controls and sterile conditions. Subsequently, 10 μL resazurin solution (12.5 mg resazurin dissolved in 100 mL double-distilled water) was added to each well and the plates were incubated for another 2 h. The plates were then read with a Spectramax Gemini XS microplate fluorometer (Molecular Devices Cooperation, Sunnyvale, CA, USA) using an excitation wavelength of 536 nm and an emission wavelength of 588 nm. Data were analyzed using the software Softmax Pro (Molecular Devices Cooperation, Sunnyvale, CA, USA). A decrease of fluorescence (=inhibition) was expressed as percentage of the fluorescence of control cultures and plotted against the drug concentrations. From the sigmoidal inhibition curves, the IC50 values were calculated. Miltefosine was used as a reference drug.

The test system of data set [5] is P. falciparum K1 strain. Description: In vitro assay for Plasmodium falciparum ([3H]-hypoxanthine incorporation). The settings on record: K1 strain (chloroquine- and pyrimethamine-resistant), erythrocytic stages, means of two determinations ± deviation, read-out: IC50 Plasmodium falciparum. It counts as cell-based. Here is the method:
Activity against the erythrocytic stages of P. falciparum was determined using an in vitro modified [^3H]-hypoxanthine incorporation assay, using the chloroquine- and pyrimethamine-resistant K1 strain [68]. Compounds were dissolved in DMSO at 10 mg/mL and further diluted in medium before added to parasite cultures incubated in RPMI 1640 medium without hypoxanthine, supplemented with HEPES (5.94 g/l), NaHCO3 (2.1 g/L), neomycin (100 U/mL), AlbumaxR (5 g/L), and washed human red cells A+ at 2.5% haematocrit (0.3% parasitaemia). Serial drug dilutions of seven 3-fold dilution steps covering a range from 90 to 0.123 μg/mL were prepared. The 96 well plates were incubated in a humidified atmosphere at 37 °C; 4% CO2, 3% O2, 93% N2. After 48 h 50 μL of ^3H-hypoxanthine (=0.5 μCi) was added to each well of the plate. The plates were incubated for a further 24 h under the same conditions. The plates were then harvested with a Betaplate™ cell harvester (Wallac, Zurich, Switzerland), and the red blood cells transferred onto a glass fiber filter then washed with distilled water. The dried filters were inserted into a plastic foil with 10 mL of scintillation fluid, and counted in a Betaplate™ liquid scintillation counter (Wallac, Zurich, Switzerland). […] IC50 values were calculated from the sigmoidal inhibition curves using Microsoft Excel. Chloroquine was used as positive control drug.

Data set [6] can be described thus: In vitro assay for cytotoxicity on mammalian cells (resazurin). The class given is cell-based, rat. Conditions: rat skeletal myoblasts, 72 h, means of two determinations ± deviation, read-out: IC50 Cytotoxicity L6 cells. How it is done:
Assays were performed in 96 well microtiter plates (4 × 10^4 L6 cells/well), each well containing 100 μL of RPMI 1640 medium supplemented with 1% L-glutamine (200 mM) and 10% FBS. L6 cells are a primary cell line derived from rat skeletal myoblasts. Serial drug dilutions of seven 3-fold dilution steps covering a range from 90 to 0.123 μg/mL were prepared. After 72 h of incubation, the plates were inspected under an inverted microscope to assure growth of the controls and sterile conditions. Resazurin solution (10 μL) (12.5 mg resazurin in 100 mL double-distilled water) was then added to each well and the plates incubated for another 2 h. The plates were then read with a Spectramax Gemini XS microplate fluorometer (Molecular Devices Cooperation, Sunnyvale, CA, USA) using an excitation wavelength of 536 nm and an emission wavelength of 588 nm. Data were analyzed using the microplate reader software Softmax Pro (Molecular Devices Cooperation, Sunnyvale, CA, USA). From the sigmoidal inhibition curves, the IC50 values were calculated. Podophyllotoxin was the positive control.

The subject of data set [7] is T. b. brucei. Further details: method as in PMID 29778466. The settings on record: blood stream trypomastigotes cultures; AnTart 1 strain, wild type; cited from earlier work.
Data set [8] deals with T. cruzi epimastigotes. Also on record: method as in doi:10.1080/10412905.2013.820669. Conditions: cited from earlier work.
Data set [9] deals with T. cruzi amastigotes. Further details: method as in doi:10.1080/10412905.2013.820669. The settings on record: cited from earlier work.
The test system of data set [10] is T. evansi. Further details: method as in PMID 26773165. The settings on record: cited from earlier work.

SMILES strings stand for the structures. Values after ≈ are worked out from the molar mass of the structure shown. Read-outs that look alike come from different tables or passages of the source.

For `CNC[C@H](O)[C@@H](O)[C@H](O)[C@H](O)CO.[O]=[Sb](=[O])[OH]` [glucantime], the “reduction of the parasite burden” value in [1] is reported as 100%.

What is called IC50 is the point on the concentration scale where inhibition reaches its midpoint. On to `CC1=CCC2CC1C2(C)C` (stereo not drawn) [α-Pinene], for which the IC50 in [2] (Trypanosoma brucei, 72 h, STIB 900 blood stream forms, 72 h; means of two independent determinations ± deviation from the mean; read-out: IC50 Trypanosoma brucei rhodesiense) was 0.42 ± 0.24 µg/mL (≈ 3.08 µM); in data set [3] it was greater than 90 µg/mL; in data set [4], 81.9 ± 9 µg/mL (≈ 601 µM); in data set [5] it was 10.7 ± 1.2 µg/mL (≈ 78.5 µM). In data set [6] (L6 cells (rat skeletal myoblasts)), the IC50 at 72 h stood at 87.8 ± 3 µg/mL (≈ 644 µM). Also, the “IC50 T. b. brucei” value in data set [7] is 2.9 µg/mL (≈ 21.3 µM). Also, the “IC50 T. cruzi epimastigotes” value in data set [8] was 2.74 µg/mL (≈ 20.1 µM). For the same compound, the “IC50 T. cruzi amastigotes” value in data set [9] is 1.92 µg/mL (≈ 14.1 µM).

As to `CC1=CC=C(C(C)C)CC1` [α-Terpinene], the IC50 is 3.1 ± 1.6 µg/mL (≈ 22.8 µM) in data set [2] (Trypanosoma brucei; STIB 900 blood stream forms, 72 h; means of two independent determinations ± deviation from the mean; read-out: IC50 Trypanosoma brucei rhodesiense); 49.1 ± 7.3 µg/mL (≈ 360 µM) in [3]; 10.5 ± 1.7 µg/mL (≈ 77.1 µM) in data set [4]; 3.7 ± 1.5 µg/mL (≈ 27.2 µM) in data set [5]; 84.7 ± 4.3 µg/mL (≈ 622 µM) in data set [6]. Besides, the “animal longevity of T. evansi-infected mice (in words)” value in data set [10] is reported as “extend animal longevity”.

Source of the values: publication PMC6930659, “Antiprotozoal Activity of Turkish Origanum onites Essential Oil and Its Components” (Molecules, 2019).
